Test results taken from patent US9469836B2, “Antifungal metabolites from fungal endophytes of Pinus strobus” (J.D. IRVING, LIMITED, priority 2011, dated 2016).

Key:
Format in all cases: cell-based
Saccharomyces cerevisae [1] = experiment: Quantitative cell density test, OD 600 nm, 96 well microplates, yeast; details: for reduction in cell density vs controls (OD 600 nm): S. cerevisae, 24 hours, 10 μL of 1 mg/mL (˜4 μM) compound in DMSO added to 200 μL culture, ANOVA p<0.000
Source text: (§1) The results of the Oxford disc assay using the isolated compounds confirmed these observations for both S. cerevisae and Microbotryum violaceum. A quantitative test protocol based on cell density using OD measurements at 600 nm in 96 well microplates was employed.
(§2) Disc diffusion assays with the extracts were employed for preliminary antifungal testing using Saccharomyces cerevisae for all strains (Sumarah et al., 2008b). […] The individual compounds were further tested using these two fungi in 96 well microplates where 10 μL of 1 mg/mL (˜4 μM) of each compound in DMSO was added to 200 μL of the above macerated cultures. The plates were incubated at room temperature with constant shaking and were measured at 600 nm. The antifungal compound nystatin was used as the positive control for all experiments.

Saccharomyces cerevisae [2] = experiment: Disc diffusion (Oxford) antifungal assay, yeast; details: isolated compounds
Description: (§3) The term “toxicity” as used herein with respect to the effect of a toxin compound or toxigenic endophyte strain on a pest means inhibited or reduced growth and/or pest death in the presence of the toxin compound or toxigenic endophyte compared to a control. For example, where toxicity is assessed using a disc diffusion assay, which uses a disc comprising a compound, which is placed on a microbial lawn, the compound is a toxic compound if it results in a zone of clearing around the disc.
(§4) From these strains the new aliphatic polyketide compound 1 and three related sesquiterpenes (IIa), (IIb) and (III) were isolated and characterized (see FIG. 1). Compound (III) is reported for the first time as a natural product and the E/Z conformational isomers (IIa) and (IIb) are reported as new structures (see FIG. 1). Additionally, the three known macrolides; pyrenophorol (IV), dihydropyrenophorin (V) and pyrenophorin (VI) were isolated and identified. Their structures were elucidated by spectroscopic analyses including 2D NMR, HRMS and by comparison to literature data where available.
as §1, §2

Microbotryum violaceum [3] = experiment: Disc diffusion (Oxford) antifungal assay, rust; details: isolated compounds, rust grown on MYP
Description: as §3, §4, §1, §2

Microbotryum violaceum [4] = experiment: Quantitative cell density test, OD 600 nm, 96 well microplates, rust; details: M. violaceum, 48 hours; 10 μL of 1 mg/mL (˜4 μM) compound in DMSO added to 200 μL culture; ANOVA p<0.000
Source text: as §1, §2

SMILES	reduction in cell density vs controls (OD 600 nm) (Saccharomyces cerevisae [1])	antifungal activity against Saccharomyces cerevisae (Saccharomyces cerevisae [2])	antifungal activity against Microbotryum violaceum (Microbotryum violaceum [3])	antifungal activity against Microbotryum violaceum (Microbotryum violaceum [3]; listed as 5)	reduction in cell density vs controls (OD 600 nm) (Microbotryum violaceum [4])	antifungal activity against Microbotryum violaceum (Microbotryum violaceum [3]; listed as (2E,4Z)-methyl-6-acetoxy-5-acetyl-7-oxohepta-2,4-dienoate)	rank of antifungal effect among compounds 1, (III) and (IV) (Saccharomyces cerevisae [1]; based on results of the response at 24 h)	antifungal activity against Microbotryum violaceum (Microbotryum violaceum [3]; listed as 2)
C[C@@H]1CC[C@H](O)/C=C/C(=O)O[C@H](C)CC[C@H](O)/C=C/C(=O)O1 [Compound (IV), pyrenophorol]	Statistically-significant reductions in cell density	antifungal activity	antifungal activity	antifungal activity	Statistically-significant reductions in cell density	–	–	–
COC(=O)/C=C\C=C(\C=O)C(OC(C)=O)C(C)=O (stereo not shown) [Compound 1, (2Z,4E)-methyl-6-acetoxy-5-formyl-7-oxo-octa-2,4-dienoate]	Statistically-significant reductions in cell density	antifungal activity	antifungal activity	–	Statistically-significant reductions in cell density	antifungal activity	–	–
CC1(C)CCCC(C)(c2ccc(CO)cc2O)O1 (stereo not shown) [Compound (III), 5-(hydroxymethyl)-2-(2′,6′,6′-trimethyltetrahydro-2H-pyran-2-yl)phenol]	Statistically-significant reductions in cell density	antifungal activity	antifungal activity	–	Statistically-significant reductions in cell density	–	most antifungal	antifungal activity
